What was measured:
Factor D = molecular target: T1, Factor D (Homo sapiens, UniProt P00746); assay: BLI biosensor assay of Factor D cleavage of Factor B, anti-Bb antibody binding; type: biochemical
T1 construct: purchased COMPTECH (Tyler Tex.)
Description: All measurements were recorded on an OCTET® RED System set to the advanced quantitation mode. The biosensors were SA-Streptavidin DIP AND READ™ configured to a 96-well microplate format (FORTEBIO). All loading volumes were 200 μl.
Eight streptavidin-coated biosensors were incubated with bio-C3b (10 μg/ml), and Factor B (0.6 μM) in Kinetics Buffer with 1 mM NiCl2 for 6 minutes.
To form bio-C3b/Bb, each biosensor was loaded with a mixture of BioC3b (10 μg/mL), factor B (600 nM) and Ni^2+ (1 mM) in Kinetics Buffer. […] The incubation time was 2 minutes.
The presence of Bb on the biosensor was detected by loading the biosensors with 55 nM of an anti-Bb antibody (Quidel, A227) and 55 nM Goat anti-mouse secondary antibody in Kinetics Buffer. The incubation time was 2 minutes.
From time 0 to about 360 seconds (˜6 minutes), the 269 kDa bio-C3b/Factor B complex formed on the streptavidin coated biosensor. […] From about 360 to about 480 seconds (˜2 minutes), Factor D cleaved Factor B into fragments Ba and Bb. […] The binding of the 300 kDa primary and secondary antibody complex to the Bb fragment was recorded as a positive wavelength shift from about 600 to 720 seconds (˜2 minutes).

C5 convertase = C5 convertase activity on bio-C3b spheres, C5a measured with ECL assay; type: biochemical; settings: for ECL signal (amount of C5a produced by C5 convertase): C5 100 nM, 60 min
Description: The bio-C3b binding to streptavidin was performed in a 2.0 ml micro-centrifuge tube. Two hundred and forty μg of SPHEROTECH beads, 0.3 mm diameter. Streptavidin coated spheres were first washed by centrifugation with 300 μL of 10 mM Tris, pH 8, and then resuspended in 200 μL of 10 mM Tris, pH 8. The spheres were incubated with bio-C3b or C3b at a concentration of 320 nM. Spheres were suspended by gentle shaking at 1350 RPM for 20 minutes at room temperature, and collected by centrifugation at 16 RCF for 10 minutes. The residual supernatant was removed and the beads were then washed to remove residual unbound bio-C3b.
C5 convertase was formed on the spheres by incubating the bio-C3b spheres with a Convertase Solution that included components of the AP, a divalent cation and buffer. The Convertase Solution consisted of Factor D, (10 nM), Factor B (400 nM), and NiCl2 (200 μM) in 10 mM Tris, pH 8.0. The spheres were suspended by gentle shaking at 1350 RPM for 20 minutes at 37° C. The spheres were centrifuged at 16×g (RCF) for 10 minutes, the supernatant is removed, and the spheres are resuspended in 1.2 ml of 10 mM Tris pH 8, 1 mM EDTA to a final concentration of 200 μg/ml.
Formation of C5a was accomplished by incubating C5, and the spheres in a Reaction Solution that included a divalent cation. The Reaction Solution was prepared by transferring to a microplate well: (i) 2 μg of spheres with C5 convertase in 10 μl of the Convertase Solution; (ii) 20 μL of a 500 μM NiCl2 solution; and (iii) 20 μL of a 250 nM solution of C5 (5 pmoles). […] Following the incubation, the reaction was stopped by adding 10 μL of a 500 mM EDTA in 10 mM Tris, pH=8.0; (Total Volume=60 μl).
The amount of C5a in the Reaction Solution was measured with an Elisa-like assay, similar to an ELISA. The neo-epitope anti-C5a antibody, BNJ383, captured soluble C5a, binding it to a well in a microplate. BNJN383 has a high affinity for C5a but a low affinity for C5. The detection reagent was a mouse anti-C5a antibody that binds the C5a captured on the plate, and a SULFO-TAG™ modified anti-mouse secondary antibody that bound the mouse antibody, and generated an ECL signal.
To wells of a high binding 96-well microplate (MSD Catalog No. L15XB-3) was added BNJ383 (0.3 pmoles,) 2 μg/mL in 25 μL of a carbonate-bicarbonate buffer at pH 9.4. The microplate was sealed and incubated at 37′C for 60 minutes. […]
The wells were sealed with a foil seal and incubated in the dark for 30 minutes. […] One hundred and fifty μL of 2×MSD Read Buffer containing tripropylamine as an electron carrier was added to the wells using a negative pipetting technique. The microplate was read on an MSD imager to measure the ECL signal generated by the SULFO-TAG™ affixed to the goat secondary antibody. […]

T1 sequence (P00746 26-253): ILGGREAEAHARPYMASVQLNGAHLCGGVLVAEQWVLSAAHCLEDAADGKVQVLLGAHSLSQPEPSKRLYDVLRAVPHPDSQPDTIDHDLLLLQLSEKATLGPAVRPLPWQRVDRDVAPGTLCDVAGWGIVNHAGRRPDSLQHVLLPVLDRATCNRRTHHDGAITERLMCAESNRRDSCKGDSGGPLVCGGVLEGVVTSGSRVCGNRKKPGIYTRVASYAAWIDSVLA

In the case of O=c1oc(Cl)c(Cl)c2ccccc12 [DCIC, 3,4-Dichloroisocoumarin], the “Effect on Factor D activity (in words)” value (Factor D; DCIC 23 μM and 35 μM) is reported as “minimal effect” and the “Inhibition of Factor D (in words)” value (Factor D; DCIC 178 μM, 267 μM and 400 μM) is reported as “maximally inhibited”.

In the case of “OmCI: tick saliva complement inhibitor, a C5 binding protein”, the “Effect on convertase activity (in words)” value (C5 convertase; OmCI 50 nM) is reported as “essentially no effect”, the “ECL signal (amount of C5a produced by C5 convertase)” value (C5 convertase; OmCI 50 nM) is reported as 40,000 and the “drop of ECL signal” value (C5 convertase; OmCI 100 nM) is reported as 8 fold. For the same compound, the “ECL signal (amount of C5a produced by C5 convertase)” value (C5 convertase; OmCI 100 nM) was 5000.
